Data from US4789478A, “Conversion of inorganic ions to metal sulfides by microorganisms” (priority 1987, dated 1988).

Tested on: Desulfomonas and Citrobacter freundii
Test: Effect of sulfate addition on sulfate-reducing activity of soil samples (Table 4)
Method: Soil samples are treated with a culture of Desulfomonas (10^8 cells/mL) and Citrobacter freundii (10^4 cells/mL) at 30° C., with and without added sulfate. Sulfate, if added, is a 1:1 mixture by weight of ferric ammonium sulfate and magnesium sulfate. Sulfate-reducing activity is indicated by formation of black precipitate in the soil sample within 24 h after mixing the cultures with soil samples.

Sulfate
sulfate-reducing activity of the mixed culture (in words) (100 ppm of sulfate): greatly improves sulfate-reducing activity of the mixed culture | sulfate reduction (in words) (200 ppm of sulfate): permit reduction in all cases
